Measurements reported in ChEMBL document CHEMBL1201862, “PubChem BioAssay data set” (2004).
The source made the active and inactive calls.

Legend:
BJ [1] = experiment: cytotoxicity toward BJ-TERT fibroblasts, dose response, cell-based, RAS-independent, luminescence (AID 1933); assay type: functional; conditions: Homo sapiens
[2] = biological target: T1, Heat shock factor protein 1 (Mus musculus, UniProt P38532); experiment: inhibition of MG132-induced HSE-luciferase signal, confirmation, cell-based, NIH3T3, luminescence, dose retest (AID 2382); assay type: functional;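 also: NIH3T3 fibroblasts with HSF1-driven luciferase reporter stressed by proteasome inhibitor MG132; luminescence from HSF1-driven luciferase expression after 8 hours of MG132 stress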
T1 sequence (P38532 whole entry): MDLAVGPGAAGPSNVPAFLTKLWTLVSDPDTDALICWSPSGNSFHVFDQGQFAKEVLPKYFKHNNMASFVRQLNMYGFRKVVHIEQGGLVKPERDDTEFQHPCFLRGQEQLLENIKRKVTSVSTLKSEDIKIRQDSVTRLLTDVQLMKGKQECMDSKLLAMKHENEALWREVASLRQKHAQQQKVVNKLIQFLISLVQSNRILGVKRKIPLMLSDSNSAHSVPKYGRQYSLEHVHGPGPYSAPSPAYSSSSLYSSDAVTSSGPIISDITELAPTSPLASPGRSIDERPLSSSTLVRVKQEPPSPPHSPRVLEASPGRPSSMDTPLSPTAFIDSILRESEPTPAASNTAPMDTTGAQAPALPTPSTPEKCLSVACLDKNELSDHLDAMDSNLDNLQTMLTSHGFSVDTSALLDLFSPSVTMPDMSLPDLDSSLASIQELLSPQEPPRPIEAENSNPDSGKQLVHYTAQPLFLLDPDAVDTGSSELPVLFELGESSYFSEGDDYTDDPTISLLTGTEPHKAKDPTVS

BJ [3] = experiment: cells; assay type: functional, cell-based; conditions: Homo sapiens
[4] = growth suppression of PTEN-null colon cells, dose response, cell-based, HCT116 PTEN knockout (AID 1047); assay type: functional;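 also: HCT116 colon tumor cells with PTEN knocked out; cells exposed to compound for 60 hours before readout; potency for loss of cell viability measured by luminescence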
[5] = growth suppression of beta-catenin-knockout colon cells, dose response, cell-based, HCT116, human colon tumor (AID 1045); assay type: functional;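 also: HCT116 colon tumor cells with beta catenin knocked out; cells exposed to compound for 60 hours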
BJ [6] = experiment: cytotoxicity toward BJ-TERT-LT-ST fibroblasts, dose response, cell-based, RAS-independent, luminescence (AID 1935); assay type: functional; conditions: Homo sapiens;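 also: BJ fibroblasts immortalized with TERT plus LT and ST oncogenes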
[7] = cytotoxicity toward DRD oncogenic fibroblasts, dose response, cell-based, non-viral oncogenic, luminescence (AID 1934); assay type: functional; conditions: Homo sapiens
[8] = biological target: Glutathione S-transferase omega-1 (Homo sapiens, UniProt P78417); experiment: GSTO1 inhibitor potency, recombinant enzyme, late-stage follow-up, biochemical, SE-Rh probe, in-gel fluorescence, powder samples (AID 463081); assay type: functional
BJ [9] = experiment: cytotoxicity toward Ras-transformed BJeLR fibroblasts, dose response, cell-based, alamar blue fluorescence, cherrypicked samples (AID 2631); assay type: functional; conditions: Homo sapiens;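 also: confirmatory dose-response assay in RAS-dependent BJ fibroblasts engineered with TERT, LT and ST, with cytotoxicity read by fluorescence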
Protein RecA = biological target: T2, Protein RecA (Mycobacterium tuberculosis, UniProt P9WHJ3); experiment: Fluorescence Cell-Free Homogeneous Dose Retest to Identify Inhibitors of RecA-Intein Splicing Activity. [Related pubchem assays (depositor defined):AID2097, AID2223, AID489010, AID492950]; assay type: functional
T2 sequence (P9WHJ3 whole entry): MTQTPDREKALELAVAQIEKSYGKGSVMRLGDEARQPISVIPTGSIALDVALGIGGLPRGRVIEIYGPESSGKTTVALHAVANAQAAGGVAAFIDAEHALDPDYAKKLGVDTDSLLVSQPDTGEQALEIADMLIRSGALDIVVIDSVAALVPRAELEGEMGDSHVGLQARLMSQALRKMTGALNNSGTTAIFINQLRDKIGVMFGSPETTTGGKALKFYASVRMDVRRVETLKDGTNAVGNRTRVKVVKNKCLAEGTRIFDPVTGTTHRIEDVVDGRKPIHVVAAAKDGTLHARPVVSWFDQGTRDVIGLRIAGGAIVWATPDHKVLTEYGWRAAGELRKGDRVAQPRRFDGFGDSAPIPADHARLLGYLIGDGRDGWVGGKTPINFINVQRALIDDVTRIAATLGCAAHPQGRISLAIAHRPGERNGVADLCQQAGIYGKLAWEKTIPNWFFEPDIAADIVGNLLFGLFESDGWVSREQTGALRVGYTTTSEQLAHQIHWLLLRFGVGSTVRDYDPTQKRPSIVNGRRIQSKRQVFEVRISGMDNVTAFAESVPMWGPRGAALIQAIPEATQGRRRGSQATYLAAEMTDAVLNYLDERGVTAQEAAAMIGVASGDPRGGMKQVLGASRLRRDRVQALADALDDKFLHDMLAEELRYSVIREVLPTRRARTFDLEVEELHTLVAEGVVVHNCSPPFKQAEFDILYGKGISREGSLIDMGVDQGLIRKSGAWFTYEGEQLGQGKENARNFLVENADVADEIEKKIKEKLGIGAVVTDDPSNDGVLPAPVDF

Paired box protein Pax-8 = Paired box protein Pax-8 (Homo sapiens, UniProt Q06710); experiment: inhibitors of PAX8-driven TPO luciferase reporter, dose response, RMG-I cells, cherry-pick (AID 687027); assay type: functional, cell-based;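 also: luciferase reporter driven by Pax8 target thyroperoxidase promoter measured by SteadyGlo luminescence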
[10] = non-specific cell cytotoxicity, dose response, cytotoxicity control for PAX8 inhibitor project, plate reader, dry powder samples (AID 743021); assay type: functional, cell-based
[11] = Luminescent dose response cell-based high throughput screening assay for inhibitors of the Janus kinase 2 mutant JAK2V617F. [Related pubchem assays: 1446 (Primary screen.), 1521 (Confirmation assay.), 1486 (Counter screen.)]; assay type: functional
[12] = Intein inhibitors as potential Tuberculosis drugs, a cytotoxicity screen. [Related pubchem assays (depositor defined):AID2221, AID2223, AID434968, AID435010, AID449749, AID449750, AID489010]; assay type: functional
[13] = cytotoxicity in HEK-293T cells, dose response, cytotoxicity control for BCR NF-kB inhibitor project, luminescence, B-cell screen hits (AID 489021); assay type: functional, cell-based;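 also: HEK-293T cells carrying an NF-kB luciferase reporter; cells exposed to compound for about 14 hours before viability readout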
[14] = biological target: T3, Replicative DNA helicase DnaB (Mycobacterium tuberculosis, UniProt P9WMR3); experiment: DnaB intein splicing inhibitors, dose response, biochemical, cell-free fluorescence (AID 449749); assay type: functional
T3 sequence (P9WMR3 whole entry): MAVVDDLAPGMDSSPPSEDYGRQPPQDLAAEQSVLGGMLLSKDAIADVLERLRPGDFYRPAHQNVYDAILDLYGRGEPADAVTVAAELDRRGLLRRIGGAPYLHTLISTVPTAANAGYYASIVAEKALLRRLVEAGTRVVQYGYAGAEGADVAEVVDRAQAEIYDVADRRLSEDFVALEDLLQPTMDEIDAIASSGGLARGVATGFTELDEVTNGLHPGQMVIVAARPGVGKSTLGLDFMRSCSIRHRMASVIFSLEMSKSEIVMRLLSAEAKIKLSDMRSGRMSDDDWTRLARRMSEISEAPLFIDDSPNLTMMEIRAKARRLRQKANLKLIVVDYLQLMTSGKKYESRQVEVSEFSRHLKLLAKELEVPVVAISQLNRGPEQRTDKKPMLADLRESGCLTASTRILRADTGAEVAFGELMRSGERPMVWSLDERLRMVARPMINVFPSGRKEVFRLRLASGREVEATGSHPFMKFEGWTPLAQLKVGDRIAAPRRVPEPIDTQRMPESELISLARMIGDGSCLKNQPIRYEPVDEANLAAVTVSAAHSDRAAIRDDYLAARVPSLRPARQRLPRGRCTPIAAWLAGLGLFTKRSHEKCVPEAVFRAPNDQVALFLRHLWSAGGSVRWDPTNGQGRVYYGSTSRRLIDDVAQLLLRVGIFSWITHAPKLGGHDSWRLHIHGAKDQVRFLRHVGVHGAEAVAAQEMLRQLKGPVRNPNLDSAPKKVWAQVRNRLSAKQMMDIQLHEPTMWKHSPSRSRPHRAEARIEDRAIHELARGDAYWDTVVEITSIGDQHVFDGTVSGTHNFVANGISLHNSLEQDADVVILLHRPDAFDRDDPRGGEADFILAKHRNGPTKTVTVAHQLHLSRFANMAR

[15] = biological target: Benomyl/methotrexate resistance protein (Candida albicans, UniProt P28873); experiment: CaMdr1 efflux pump inhibitor potency, dose response, singleplex, Cherry Pick1 hits (AID 588608); assay type: functional
Vero = experiment: cells; assay type: functional; conditions: Chlorocebus sabaeus
Bcl-2-related protein A1 = biological target: T4, Bcl-2-related protein A1 (Mus musculus, UniProt Q07440); assay type: functional;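 also: confirmatory dose–response counterscreen on Bfl-1, used to check hits from a UBC13 polyubiquitin inhibitor campaign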
T4 sequence (Q07440 whole entry): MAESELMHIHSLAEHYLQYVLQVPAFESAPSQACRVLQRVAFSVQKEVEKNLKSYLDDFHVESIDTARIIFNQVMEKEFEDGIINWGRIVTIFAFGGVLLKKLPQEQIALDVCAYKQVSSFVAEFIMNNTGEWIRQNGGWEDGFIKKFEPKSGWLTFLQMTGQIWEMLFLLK

[16] = biological target: T5, Ubiquitin-conjugating enzyme E2 N (Homo sapiens, UniProt P61088); assay type: functional
T5 sequence (P61088 whole entry): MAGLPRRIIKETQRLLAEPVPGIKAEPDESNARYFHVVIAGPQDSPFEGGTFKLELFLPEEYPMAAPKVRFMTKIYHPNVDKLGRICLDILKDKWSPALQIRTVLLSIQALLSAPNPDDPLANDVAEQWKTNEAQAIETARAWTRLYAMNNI

[17] = biological target: T5, Ubiquitin-conjugating enzyme E2 N; assay type: functional; remark: listed apart in the source
[18] = biological target: T6, Type-1 angiotensin II receptor (Homo sapiens, UniProt P30556); experiment: AT1 receptor agonists, dose response, selectivity assay for APJ receptor agonist project, cell-based, uHTS hits (AID 488865); assay type: functional;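 also: beta-arrestin recruitment to AT1 measured by enzyme fragment complementation luminescence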
T6 sequence (P30556 whole entry): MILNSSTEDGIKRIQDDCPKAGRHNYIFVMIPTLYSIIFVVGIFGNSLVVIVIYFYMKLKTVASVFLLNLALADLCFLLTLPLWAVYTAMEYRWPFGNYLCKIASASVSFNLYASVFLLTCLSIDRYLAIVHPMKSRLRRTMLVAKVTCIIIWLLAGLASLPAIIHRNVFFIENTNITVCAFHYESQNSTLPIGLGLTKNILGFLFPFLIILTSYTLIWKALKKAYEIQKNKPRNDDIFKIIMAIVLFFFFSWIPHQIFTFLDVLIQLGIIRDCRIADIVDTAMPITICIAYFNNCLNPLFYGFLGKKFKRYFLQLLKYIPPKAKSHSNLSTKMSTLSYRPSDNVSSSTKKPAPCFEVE

[19] = biological target: T7, Microphthalmia-associated transcription factor (Homo sapiens, UniProt O75030); experiment: MITF Measured in Cell-Based System Using Plate Reader - 2084-01_Inhibitor_DoseNoFile_CherryPick_Activity_Set2. [Related pubchem assays (depositor defined):AID488944]; assay type: functional
T7 sequence (O75030 whole entry): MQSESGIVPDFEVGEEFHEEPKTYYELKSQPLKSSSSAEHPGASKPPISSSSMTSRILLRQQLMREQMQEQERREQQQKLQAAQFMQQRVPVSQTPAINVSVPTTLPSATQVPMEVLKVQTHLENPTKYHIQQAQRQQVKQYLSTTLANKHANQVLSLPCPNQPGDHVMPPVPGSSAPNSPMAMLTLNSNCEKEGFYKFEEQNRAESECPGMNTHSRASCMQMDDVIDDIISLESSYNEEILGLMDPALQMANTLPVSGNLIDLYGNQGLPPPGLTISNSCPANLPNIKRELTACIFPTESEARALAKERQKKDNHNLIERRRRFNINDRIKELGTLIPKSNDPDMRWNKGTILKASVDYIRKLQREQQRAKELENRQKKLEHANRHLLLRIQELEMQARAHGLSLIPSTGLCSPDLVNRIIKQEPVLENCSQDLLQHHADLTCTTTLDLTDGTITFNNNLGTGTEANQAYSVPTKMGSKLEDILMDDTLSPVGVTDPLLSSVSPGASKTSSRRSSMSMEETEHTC

[20] = biological target: T7, Microphthalmia-associated transcription factor; experiment: TRPM1 promoter luciferase signal decrease, dose response, MITF inhibitor project, cell-based, SK-MEL-5, cherry-picked, set 4 (AID 493102); assay type: functional
[21] = biological target: T7, Microphthalmia-associated transcription factor; experiment: TRPM1 promoter luciferase signal decrease, dose response, MITF inhibitor project, cell-based, SK-MEL-5, cherry-picked, set 3 (AID 493073); assay type: functional
[22] = biological target: Sphingosine 1-phosphate receptor 4 (Homo sapiens, UniProt O95977); experiment: S1P4 receptor agonists, human, late-stage follow-up, cell-based, fluorescence, synthesized compounds (AID 463107); assay type: functional
Sphingosine 1-phosphate receptor 4, sequence (O95977 whole entry): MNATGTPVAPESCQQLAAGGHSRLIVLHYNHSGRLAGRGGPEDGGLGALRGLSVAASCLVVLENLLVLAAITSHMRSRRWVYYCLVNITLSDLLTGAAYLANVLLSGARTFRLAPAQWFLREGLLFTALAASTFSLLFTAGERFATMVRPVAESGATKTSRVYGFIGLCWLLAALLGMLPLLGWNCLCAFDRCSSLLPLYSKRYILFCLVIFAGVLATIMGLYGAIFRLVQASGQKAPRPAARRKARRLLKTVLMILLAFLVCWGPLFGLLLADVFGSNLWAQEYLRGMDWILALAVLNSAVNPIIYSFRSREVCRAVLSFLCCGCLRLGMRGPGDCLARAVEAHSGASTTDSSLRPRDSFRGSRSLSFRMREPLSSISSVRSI

Glutathione S-transferase omega-1, sequence (P78417 whole entry): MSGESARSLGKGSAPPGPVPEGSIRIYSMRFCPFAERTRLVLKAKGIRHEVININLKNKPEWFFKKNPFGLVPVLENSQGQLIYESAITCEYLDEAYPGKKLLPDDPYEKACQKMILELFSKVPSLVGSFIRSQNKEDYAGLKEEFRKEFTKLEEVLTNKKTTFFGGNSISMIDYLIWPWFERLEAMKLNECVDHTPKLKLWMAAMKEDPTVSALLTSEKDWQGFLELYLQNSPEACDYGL
Benomyl/methotrexate resistance protein, sequence (P28873 whole entry): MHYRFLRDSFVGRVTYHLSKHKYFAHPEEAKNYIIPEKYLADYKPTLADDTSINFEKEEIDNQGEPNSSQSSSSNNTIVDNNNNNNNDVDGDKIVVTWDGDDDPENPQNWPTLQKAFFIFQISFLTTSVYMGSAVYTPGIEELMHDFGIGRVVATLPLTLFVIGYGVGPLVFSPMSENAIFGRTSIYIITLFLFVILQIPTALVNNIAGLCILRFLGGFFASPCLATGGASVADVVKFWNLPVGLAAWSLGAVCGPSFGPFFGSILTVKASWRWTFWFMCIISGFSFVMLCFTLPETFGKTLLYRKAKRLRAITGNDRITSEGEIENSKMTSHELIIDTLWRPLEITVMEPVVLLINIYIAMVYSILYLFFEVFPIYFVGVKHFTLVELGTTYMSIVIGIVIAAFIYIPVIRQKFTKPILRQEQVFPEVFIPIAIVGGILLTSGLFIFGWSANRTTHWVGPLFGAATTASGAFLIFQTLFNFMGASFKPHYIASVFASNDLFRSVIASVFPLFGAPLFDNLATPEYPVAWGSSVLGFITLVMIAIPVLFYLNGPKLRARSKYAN
Paired box protein Pax-8, sequence (Q06710 whole entry): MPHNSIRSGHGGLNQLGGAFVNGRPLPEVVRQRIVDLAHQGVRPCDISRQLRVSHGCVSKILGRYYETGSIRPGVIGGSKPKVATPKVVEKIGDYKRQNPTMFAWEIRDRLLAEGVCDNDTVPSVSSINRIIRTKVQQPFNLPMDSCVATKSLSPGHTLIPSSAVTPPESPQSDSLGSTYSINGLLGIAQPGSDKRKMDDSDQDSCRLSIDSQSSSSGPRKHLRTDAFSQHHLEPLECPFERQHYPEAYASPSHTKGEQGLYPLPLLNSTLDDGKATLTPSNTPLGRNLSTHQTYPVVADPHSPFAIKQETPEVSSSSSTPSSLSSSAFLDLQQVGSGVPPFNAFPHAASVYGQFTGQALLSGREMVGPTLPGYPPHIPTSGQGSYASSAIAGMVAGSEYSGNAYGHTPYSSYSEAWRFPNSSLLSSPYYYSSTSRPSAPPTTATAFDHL

In the case of `COc1ccc(C(C(=O)NC2CCCCC2)N(C(=O)CCl)c2cccc(Cl)c2)cc1` (stereo unspecified), the EC50 (BJ [1]) is reported as 176 nM (inconclusive), the EC50 [2] is reported as 691 nM (active) and the EC50 (BJ [3]) is reported as 0.987 µM (inconclusive). For the same compound, the EC50 [4] was 1.36 µM (active), the EC50 [5] was 1.09 µM (active) and the EC50 (BJ [6]) was 4.57 µM (active). The EC50 [7] was 518 nM (active), the IC50 [8] was 32 nM (active) and the EC50 (BJ [9]) was 122 nM (active). The EC50 (Protein RecA) was 202 nM (active), the AC50 (Paired box protein Pax-8) was < 500 nM (active) and the AC50 [10] was 1.02 µM (active).

In the case of `COc1ccc2nc(C)cc(Sc3nc4ccccc4s3)c2c1`, the IC50 [11] is reported as 1.91 µM (active), the CC50 [12] is reported as 26.4 µM (active) and the IC50 [13] is reported as > 80 µM (inactive). For the same compound, the AC50 [14] was 2.87 µM (active), the EC50 [15] was 479 nM (active) and the EC50 (Protein RecA) was 2890 nM (active). For the same compound, the CC50 (Vero) was 14.3 µM (active).

For `Cc1cc(C)c2sc(N(CCCN(C)C)C(=O)c3ccc(S(=O)(=O)N4CCc5ccccc5C4)cc3)nc2c1`, the EC50 (BJ [1]) was 1570 nM (active), the EC50 (BJ [3]) was 9.56 µM (active) and the EC50 (BJ [6]) was 2.54 µM (inconclusive). For the same compound, the EC50 [7] was 3680 nM (active), the IC50 (Bcl-2-related protein A1) was > 20 µM (inactive) and the IC50 [16] was 10 µM (active). The IC50 [17] was 4.64 µM (active) and the EC50 [18] was > 100 µM (inactive).

With `CCCCN=c1nc(S)n(-c2ccccc2)c(C)c1C(C)=O` the AC50 [19] was > 350 µM (inactive), the AC50 [20] was > 350 µM (inactive) and the AC50 [21] was > 350 µM (inactive).

In the case of `Cc1ccc(OCCc2ccc(Cl)cc2Cl)c([N+](=O)[O-])n1`, the EC50 [22] is reported as 2.1 µM (active).
